Laboratory results reported in patent US20090239896A1, “AZAINDOLE COMPOUNDS AND USE THEREOF AS PHOSPHOLIPASE-A2 INHIBITORS” (priority 2005, published 2009).

Tests used:
Caco-2 monolayers = assay: in-vitro Caco-2 permeability study (Example 6B); format: in vitro ADME, human
Description: The culture medium was refreshed every 48 hours.
Papp=(dQ/dt)X(1/C0)X(1/A)

mouse PLA2 IB enzyme = mouse PLA2 IB enzyme (Mus musculus, UniProt Q9Z0Y2); conditions: pyrene substrate release from vesicles; Singer, Ghomashchi et al. 2002; read-out: IC50 value versus the mouse PLA2 IB enzyme; cited from earlier work
Sequence of mouse PLA2 IB enzyme (Q9Z0Y2 23-146): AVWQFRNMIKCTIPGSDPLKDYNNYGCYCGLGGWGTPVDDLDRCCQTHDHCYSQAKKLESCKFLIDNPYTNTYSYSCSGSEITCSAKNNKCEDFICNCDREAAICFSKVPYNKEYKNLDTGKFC

[1] = pharmokinetic study of ILY-4001, IV and oral (Example 6C); format: in vivo, mice; conditions: 30 mg/kg oral
Description: This example evaluated the bioavailability of ILY-4001 [2-(3-(2-amino-2-oxoacetyl)-1-(biphenyl-2-ylmethyl)-2-methyl-1H-indol-4-yloxy)acetic acid], alternatively referred to herein as methyl indoxam. Specifically, a pharmokinetic study was conducted to determine the fraction of unchanged ILY-4001 in systemic circulation following administration.
Bioavailability was calculated as a ratio of AUC-oral/AUC-intravenous (IV). To determine this ratio, a first set of subject animals were given a measured intravenous (IV) dose of ILY-4001, followed by a determination of ILY-4001 levels in the blood at various time points after administration (e.g., 5 minutes through 24 hours). Another second set of animals was similarly dosed using oral administration, with blood levels of ILY-4001 determined at various time points after administration (e.g., 30 minutes through 24 hours). The level of ILY-4001 in systemic circulation were determined by generally accepted methods (for example as described in Evans, G., A Handbook of Bioanalysis and Drug Metabolism. Boca Raton, CRC Press (2004)). Specifically, […]/mass spectrometry/mass spectrometry (LC/MS/MS) analytical methods were used to quantitate plasma concentrations of ILY-4001 after oral and intravenous administration. Pharmacokinetic parameters that were measured include Cmax, AUC, tmax, t1/2, and F (bioavailability). […]

stability at low pH = format: physicochemical; conditions: predicted to survive passage through the stomach
human PLA2 IB enzyme = human PLA2 IB enzyme (Homo sapiens, UniProt P04054); conditions: pyrene substrate release from vesicles; Singer, Ghomashchi et al. 2002; read-out: IC50 value versus the human PLA2 IB enzyme; cited from earlier work
Sequence of human PLA2 IB enzyme (P04054 23-148): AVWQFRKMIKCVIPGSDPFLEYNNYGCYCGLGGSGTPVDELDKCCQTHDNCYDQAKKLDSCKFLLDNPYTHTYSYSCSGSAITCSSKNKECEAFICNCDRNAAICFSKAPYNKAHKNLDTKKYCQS

[2] = system: C57BL/6 wild-type mice on high fat/high sucrose diabetogenic diet; assay: in-vivo evaluation in mice on high fat/high sucrose diabetogenic diet (Example 5); parameters: species or system mouse; conditions: for fasting glucose levels: low dose (25 mg/kg/day)
Description: Briefly, four groups were set up, each having six mice. Three of the groups included six wild-type PLA2 (+/+) mice in each group (eighteen mice total), and one of the groups included six genetically deficient PLA2 (−/−) mice. One of the wild-type groups was used as a wild-type control group, and was not treated with ILY-4001. The other two wild-type groups were treated with ILY-4001—one group at a lower dose (indicated as “L” in Table 1) of 25 mg/kg/day, and the other at a higher dose (indicated as “H” in Table 1) of 90 mg/kg/day. The group comprising the PLA2 (−/−) mice was used as a positive control group.
The experimental protocol used in this study was as follows. The four groups of mice, including wild type and isogenic PLA2 (−/−) C57BL/J mice were acclimated for three days on a low fat/low carbohydrate diet. After the three day acclimation phase, the animals were ? and serum samples taken to establish baseline plasma cholesterol, triglyceride, and glucose levels, along with baseline body weight. The mice in each of the treatment groups were then fed a high fat/high sucrose diabetogenic diet (Research Diets D12331). 1000 g of the high fat/high sucrose D12331 diet was composed of casein (228 g), DL-methionine (2 g), maltodextrin 10 (170 g), sucrose (175 g), soybean oil (25 g), hydrogenated coconut oil (333.5 g), mineral mix S10001 (40 g), sodium bicarbonate (10.5 g), potassium citrate (4 g), vitamin mix V10001 (10 g), and choline bitartrate (2 g). This diet was supplemented with ILY-4001 treatments such that the average daily dose of the compound ingested by a 25 g mouse was: 0 mg/kg/day (wild-type control group and PLA2 (−/−) control group); 25 mg/kg/day (low-dose wild-type treatment group), or 90 mg/kg/day (high-dose wild-type treatment group). The animals were maintained on the high fat/high sucrose diet, with the designated ILY-4001 supplementation, for a period of ten weeks.
Body weight measurements were taken for all animals in all treatment and control groups at the beginning of the treatment period and at 4 weeks and 10 weeks after initiation of the study. (See Example 5A). Blood draws were also taken at the beginning of the treatment period (baseline) and at 4 weeks and 10 weeks after initiation of the study, in order to determine fasting glucose (See Example 5B). Cholesterol and triglyceride levels were determined from blood draws taken at the beginning of the treatment (baseline) and at ten weeks. (See Example 5C).
In the study generally described above in Example 5, body weight measurements were taken for all animals in all treatment and control groups at the beginning of the treatment period and at 4 weeks and 10 weeks after initiation of the study.
In the study generally described above in Example 5, blood draws were taken at the beginning of the treatment period (baseline) and at 4 weeks and 10 weeks after initiation of the study, in order to determine fasting glucose.
In the study generally described above in Example 5, blood draws were taken at the beginning of the treatment period (baseline) and at 10 weeks after initiation of the study, in order to determine cholesterol and triglyceride levels.

[3] = low and high doses (25 and 90 mg/kg/day), 10 weeks

Cc1c(C(=O)C(N)=O)c2c(OCC(=O)O)cccc2n1Cc1ccccc1-c1ccccc1 [ILY-4001, 2-(3-(2-amino-2-oxoacetyl)-1-(biphenyl-2-ylmethyl)-2-methyl-1H-indol-4-yloxy)acetic acid]
absorption from the GI lumen (Caco-2 monolayers; based on Caco-2 assays and pharmokinetic studies): relatively low
IC50 (mouse PLA2 IB enzyme): ~150 nM
level of non-absorption from the GI tract into systemic circulation [1]: ~72%
stability at low pH (stability at low pH): stable
IC50 (human PLA2 IB enzyme): ~200 nM
body weight gain compared to wild-type control group ([2]; 25 mg/kg/d and 90 mg/kg/d in diet, week 4 and week 10): significantly reduced
plasma levels of cholesterol [2, 3]: substantially reduced
plasma levels of triglycerides [2, 3]: substantially reduced
fasting glucose levels ([2]; week four): moderately beneficial effect
fasting glucose levels ([2]; week ten): a beneficial effect was not observed

Lucifer Yellow
apparent permeability (Caco-2 monolayers; Caco-2): around 2.82×10^−7+/−0.37×10^−7 cm/s
